Results as given in ChEMBL document CHEMBL4507274 (2021).

Legend:
[1] = target: Mitogen-activated protein kinase kinase kinase 3 (Homo sapiens) (UniProt Q99759); settings: Compound concentration 100.0 nM
[2] = target: Phosphatidylinositol 4-kinase beta (Homo sapiens) (UniProt Q9UBF8); settings: Compound concentration 100.0 nM
[3] = target: T1, Protein kinase C iota type (Homo sapiens) (UniProt P41743); settings: Compound concentration 100.0 nM
T1 sequence (whole entry): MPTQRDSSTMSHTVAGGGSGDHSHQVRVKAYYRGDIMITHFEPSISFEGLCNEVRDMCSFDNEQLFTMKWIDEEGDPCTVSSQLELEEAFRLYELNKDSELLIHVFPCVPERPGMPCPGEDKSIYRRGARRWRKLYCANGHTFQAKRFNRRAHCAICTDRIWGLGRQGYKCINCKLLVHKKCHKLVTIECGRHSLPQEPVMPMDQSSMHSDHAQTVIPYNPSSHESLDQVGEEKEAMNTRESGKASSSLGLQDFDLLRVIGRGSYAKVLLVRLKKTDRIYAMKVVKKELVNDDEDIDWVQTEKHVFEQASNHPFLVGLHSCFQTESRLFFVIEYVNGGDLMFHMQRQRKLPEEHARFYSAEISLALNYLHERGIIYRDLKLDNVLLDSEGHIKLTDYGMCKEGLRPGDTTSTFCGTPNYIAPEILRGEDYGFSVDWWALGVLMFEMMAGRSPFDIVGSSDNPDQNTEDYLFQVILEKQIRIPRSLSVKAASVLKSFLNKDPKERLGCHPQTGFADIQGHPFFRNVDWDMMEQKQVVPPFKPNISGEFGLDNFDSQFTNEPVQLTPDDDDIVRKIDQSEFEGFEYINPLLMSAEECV

[4] = target: T2, Tyrosine-protein kinase receptor TYRO3 (Homo sapiens) (UniProt Q06418); settings: Compound concentration 100.0 nM
T2 sequence (whole entry): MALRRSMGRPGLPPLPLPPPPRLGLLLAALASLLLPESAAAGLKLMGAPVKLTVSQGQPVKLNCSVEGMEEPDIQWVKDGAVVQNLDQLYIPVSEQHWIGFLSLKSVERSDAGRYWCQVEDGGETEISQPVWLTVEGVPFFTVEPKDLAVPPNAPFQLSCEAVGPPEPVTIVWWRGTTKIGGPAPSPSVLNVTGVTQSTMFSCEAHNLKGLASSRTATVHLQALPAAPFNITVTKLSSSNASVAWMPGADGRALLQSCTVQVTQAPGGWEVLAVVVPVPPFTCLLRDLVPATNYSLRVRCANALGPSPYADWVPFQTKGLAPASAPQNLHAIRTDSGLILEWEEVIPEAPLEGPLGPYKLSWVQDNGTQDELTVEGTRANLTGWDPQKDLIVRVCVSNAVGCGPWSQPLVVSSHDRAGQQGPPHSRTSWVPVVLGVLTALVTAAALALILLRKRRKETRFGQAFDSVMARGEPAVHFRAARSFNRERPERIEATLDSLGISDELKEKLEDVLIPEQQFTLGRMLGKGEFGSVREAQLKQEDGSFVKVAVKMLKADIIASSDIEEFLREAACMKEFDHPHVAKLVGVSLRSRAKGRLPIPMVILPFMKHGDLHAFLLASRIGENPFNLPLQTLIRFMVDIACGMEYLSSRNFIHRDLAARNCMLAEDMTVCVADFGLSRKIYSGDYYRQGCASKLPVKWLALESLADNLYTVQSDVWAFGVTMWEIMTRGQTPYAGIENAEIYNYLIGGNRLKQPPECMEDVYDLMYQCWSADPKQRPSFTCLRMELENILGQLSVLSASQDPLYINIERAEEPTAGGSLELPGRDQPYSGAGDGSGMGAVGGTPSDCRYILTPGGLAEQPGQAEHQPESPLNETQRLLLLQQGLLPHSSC

[5] = target: Cyclin-dependent kinase 2 homolog (Plasmodium falciparum (isolate 3D7)) (UniProt P61075); settings: Compound concentration 100.0 nM
[6] = target: Tyrosine-protein kinase HCK (Homo sapiens) (UniProt P08631); settings: Compound concentration 100.0 nM
[7] = target: Ephrin type-B receptor 6 (Homo sapiens) (UniProt O15197); settings: Compound concentration 100.0 nM
[8] = target: NUAK family SNF1-like kinase 1 (Homo sapiens) (UniProt O60285); settings: Compound concentration 100.0 nM
[9] = target: High affinity nerve growth factor receptor (Homo sapiens) (UniProt P04629); settings: Compound concentration 100.0 nM
[10] = target: Calcium/calmodulin-dependent protein kinase kinase 1 (Homo sapiens) (UniProt Q8N5S9); settings: Compound concentration 100.0 nM
[11] = target: Serine/threonine-protein kinase Nek9 (Homo sapiens) (UniProt Q8TD19); settings: Compound concentration 100.0 nM
[12] = target: Tyrosine-protein kinase JAK1 (Homo sapiens) (UniProt P23458); settings: Compound concentration 100.0 nM
[13] = target: Serine/threonine-protein kinase ULK2 (Homo sapiens) (UniProt Q8IYT8); settings: Compound concentration 100.0 nM
[14] = target: 5'-AMP-activated protein kinase catalytic subunit alpha-1 (Homo sapiens) (UniProt Q13131); settings: Compound concentration 100.0 nM
[15] = target: Ankyrin repeat and protein kinase domain-containing protein 1 (Homo sapiens) (UniProt Q8NFD2); settings: Compound concentration 100.0 nM
[16] = target: Casein kinase I isoform delta (Homo sapiens) (UniProt P48730); settings: Compound concentration 100.0 nM
[17] = target: Serine/threonine-protein kinase 24 (Homo sapiens) (UniProt Q9Y6E0); settings: Compound concentration 100.0 nM
[18] = target: Insulin receptor (Homo sapiens) (UniProt P06213); settings: Compound concentration 100.0 nM
[19] = target: Mu-type opioid receptor (Homo sapiens) (UniProt P35372); settings: Compound concentration 10.0 uM
[20] = target: TGF-beta receptor type-1 (Homo sapiens) (UniProt P36897); settings: Compound concentration 100.0 nM
[21] = target: Ribosomal protein S6 kinase alpha-4 (Homo sapiens) (UniProt O75676); settings: Compound concentration 100.0 nM
[22] = target: Serine/threonine-protein kinase Nek3 (Homo sapiens) (UniProt P51956); settings: Compound concentration 100.0 nM
[23] = system: Mast/stem cell growth factor receptor Kit (Homo sapiens), P10721 [D816V]; settings: Compound concentration 100.0 nM
[24] = system: Receptor-type tyrosine-protein kinase FLT3 (Homo sapiens), P36888 [D835Y]; settings: Compound concentration 100.0 nM
[25] = target: SRSF protein kinase 1 (Homo sapiens) (UniProt Q96SB4); settings: Compound concentration 100.0 nM
SRSF protein kinase 1 (Homo sapiens), sequence (Q96SB4 whole entry): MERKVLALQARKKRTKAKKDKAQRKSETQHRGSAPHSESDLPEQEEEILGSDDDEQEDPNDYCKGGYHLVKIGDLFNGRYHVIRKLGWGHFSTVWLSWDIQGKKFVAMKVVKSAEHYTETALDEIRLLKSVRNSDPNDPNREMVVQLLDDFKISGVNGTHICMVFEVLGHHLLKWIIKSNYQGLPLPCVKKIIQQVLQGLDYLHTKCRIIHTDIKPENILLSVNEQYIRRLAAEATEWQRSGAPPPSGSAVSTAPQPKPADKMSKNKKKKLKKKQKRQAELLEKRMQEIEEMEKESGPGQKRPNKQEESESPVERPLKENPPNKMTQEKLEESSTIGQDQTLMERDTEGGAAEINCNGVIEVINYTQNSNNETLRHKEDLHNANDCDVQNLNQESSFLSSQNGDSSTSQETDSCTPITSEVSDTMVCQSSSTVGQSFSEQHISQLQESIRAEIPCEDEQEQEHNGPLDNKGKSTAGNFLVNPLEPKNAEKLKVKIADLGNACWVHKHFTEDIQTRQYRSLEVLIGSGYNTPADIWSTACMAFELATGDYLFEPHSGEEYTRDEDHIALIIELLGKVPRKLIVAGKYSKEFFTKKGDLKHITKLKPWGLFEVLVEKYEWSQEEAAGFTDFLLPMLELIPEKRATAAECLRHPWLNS

Ribosomal protein S6 kinase alpha-4 (Homo sapiens), sequence (O75676 whole entry, looked up): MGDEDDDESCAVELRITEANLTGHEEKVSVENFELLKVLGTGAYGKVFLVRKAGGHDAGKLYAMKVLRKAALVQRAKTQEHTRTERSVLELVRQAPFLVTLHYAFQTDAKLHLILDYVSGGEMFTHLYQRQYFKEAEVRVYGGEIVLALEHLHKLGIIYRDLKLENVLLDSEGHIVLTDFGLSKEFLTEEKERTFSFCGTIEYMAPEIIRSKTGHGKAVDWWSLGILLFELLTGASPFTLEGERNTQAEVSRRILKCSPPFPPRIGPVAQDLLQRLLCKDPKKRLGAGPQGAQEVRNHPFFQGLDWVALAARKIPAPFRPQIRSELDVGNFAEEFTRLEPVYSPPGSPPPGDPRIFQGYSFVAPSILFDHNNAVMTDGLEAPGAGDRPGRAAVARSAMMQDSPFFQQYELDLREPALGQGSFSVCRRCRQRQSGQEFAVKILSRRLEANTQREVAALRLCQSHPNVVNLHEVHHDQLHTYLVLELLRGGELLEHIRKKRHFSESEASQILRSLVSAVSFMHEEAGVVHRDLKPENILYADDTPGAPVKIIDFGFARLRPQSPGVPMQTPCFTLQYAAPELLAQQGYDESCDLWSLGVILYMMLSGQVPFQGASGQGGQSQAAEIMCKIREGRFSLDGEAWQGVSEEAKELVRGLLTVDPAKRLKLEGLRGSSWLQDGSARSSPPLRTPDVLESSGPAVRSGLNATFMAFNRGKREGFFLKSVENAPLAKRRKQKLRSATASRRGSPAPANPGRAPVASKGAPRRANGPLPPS
Ankyrin repeat and protein kinase domain-containing protein 1 (Homo sapiens), sequence (Q8NFD2 whole entry, the tested form may be a part, canonical isoform): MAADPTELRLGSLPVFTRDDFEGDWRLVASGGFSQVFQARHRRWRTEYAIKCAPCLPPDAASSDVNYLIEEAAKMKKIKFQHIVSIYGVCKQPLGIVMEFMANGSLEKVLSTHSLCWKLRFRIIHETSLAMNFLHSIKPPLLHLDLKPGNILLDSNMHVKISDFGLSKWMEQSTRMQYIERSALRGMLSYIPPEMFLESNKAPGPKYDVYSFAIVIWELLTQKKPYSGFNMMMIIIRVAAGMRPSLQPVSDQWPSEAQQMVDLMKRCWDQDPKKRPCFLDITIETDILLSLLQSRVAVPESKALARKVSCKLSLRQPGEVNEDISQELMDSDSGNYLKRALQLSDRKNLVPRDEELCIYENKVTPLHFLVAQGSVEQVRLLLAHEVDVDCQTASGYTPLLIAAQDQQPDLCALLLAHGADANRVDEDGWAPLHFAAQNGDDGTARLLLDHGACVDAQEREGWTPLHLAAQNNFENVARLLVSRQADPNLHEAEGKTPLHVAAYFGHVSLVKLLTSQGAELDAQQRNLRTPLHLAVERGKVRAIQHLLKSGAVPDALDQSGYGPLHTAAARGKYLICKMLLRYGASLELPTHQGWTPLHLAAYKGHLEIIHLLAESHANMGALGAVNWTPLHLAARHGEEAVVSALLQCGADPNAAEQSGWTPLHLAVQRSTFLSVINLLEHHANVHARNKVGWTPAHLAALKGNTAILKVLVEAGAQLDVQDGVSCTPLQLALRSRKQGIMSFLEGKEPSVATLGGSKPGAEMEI
Calcium/calmodulin-dependent protein kinase kinase 1 (Homo sapiens), sequence (Q8N5S9 whole entry, looked up): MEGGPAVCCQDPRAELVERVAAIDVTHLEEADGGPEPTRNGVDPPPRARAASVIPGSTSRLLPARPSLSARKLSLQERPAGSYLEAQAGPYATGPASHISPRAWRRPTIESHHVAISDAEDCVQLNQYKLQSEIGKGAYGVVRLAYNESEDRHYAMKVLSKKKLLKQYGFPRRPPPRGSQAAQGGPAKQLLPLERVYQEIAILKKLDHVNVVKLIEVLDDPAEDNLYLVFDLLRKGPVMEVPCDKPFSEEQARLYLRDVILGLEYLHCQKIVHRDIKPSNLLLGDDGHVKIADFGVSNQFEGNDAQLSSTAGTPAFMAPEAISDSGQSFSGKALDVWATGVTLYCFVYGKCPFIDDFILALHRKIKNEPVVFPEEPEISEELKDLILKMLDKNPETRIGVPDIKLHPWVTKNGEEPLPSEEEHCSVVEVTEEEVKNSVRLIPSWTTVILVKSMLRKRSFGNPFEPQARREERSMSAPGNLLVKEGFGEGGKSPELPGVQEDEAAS
Serine/threonine-protein kinase Nek3 (Homo sapiens), sequence (P51956 whole entry): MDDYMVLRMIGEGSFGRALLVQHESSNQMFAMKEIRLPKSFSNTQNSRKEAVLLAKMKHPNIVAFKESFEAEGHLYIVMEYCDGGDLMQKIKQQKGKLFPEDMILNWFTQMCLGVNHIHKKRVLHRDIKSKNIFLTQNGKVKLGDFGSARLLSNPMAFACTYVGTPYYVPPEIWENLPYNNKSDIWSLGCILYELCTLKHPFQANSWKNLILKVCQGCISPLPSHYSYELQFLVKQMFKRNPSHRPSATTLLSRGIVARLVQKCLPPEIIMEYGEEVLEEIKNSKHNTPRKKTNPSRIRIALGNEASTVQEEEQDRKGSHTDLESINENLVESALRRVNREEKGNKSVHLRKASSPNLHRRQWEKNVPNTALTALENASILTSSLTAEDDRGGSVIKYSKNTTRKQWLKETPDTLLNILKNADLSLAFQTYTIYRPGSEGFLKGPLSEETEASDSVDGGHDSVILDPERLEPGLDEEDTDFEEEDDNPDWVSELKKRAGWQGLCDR
Serine/threonine-protein kinase 24 (Homo sapiens), sequence (Q9Y6E0 whole entry, looked up): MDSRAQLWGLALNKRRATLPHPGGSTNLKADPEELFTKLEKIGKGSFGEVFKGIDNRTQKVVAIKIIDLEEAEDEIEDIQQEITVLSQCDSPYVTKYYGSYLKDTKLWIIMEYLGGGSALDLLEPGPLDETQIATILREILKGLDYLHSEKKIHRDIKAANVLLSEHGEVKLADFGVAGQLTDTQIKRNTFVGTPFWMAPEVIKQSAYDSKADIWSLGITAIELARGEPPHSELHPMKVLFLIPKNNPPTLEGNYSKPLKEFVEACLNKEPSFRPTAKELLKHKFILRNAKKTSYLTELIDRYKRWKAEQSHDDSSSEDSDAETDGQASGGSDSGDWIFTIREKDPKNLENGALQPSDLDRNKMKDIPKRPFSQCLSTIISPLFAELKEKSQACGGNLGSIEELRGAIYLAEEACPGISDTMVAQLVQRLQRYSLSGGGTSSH
Tyrosine-protein kinase HCK (Homo sapiens), sequence (P08631 2-526 limits assumed): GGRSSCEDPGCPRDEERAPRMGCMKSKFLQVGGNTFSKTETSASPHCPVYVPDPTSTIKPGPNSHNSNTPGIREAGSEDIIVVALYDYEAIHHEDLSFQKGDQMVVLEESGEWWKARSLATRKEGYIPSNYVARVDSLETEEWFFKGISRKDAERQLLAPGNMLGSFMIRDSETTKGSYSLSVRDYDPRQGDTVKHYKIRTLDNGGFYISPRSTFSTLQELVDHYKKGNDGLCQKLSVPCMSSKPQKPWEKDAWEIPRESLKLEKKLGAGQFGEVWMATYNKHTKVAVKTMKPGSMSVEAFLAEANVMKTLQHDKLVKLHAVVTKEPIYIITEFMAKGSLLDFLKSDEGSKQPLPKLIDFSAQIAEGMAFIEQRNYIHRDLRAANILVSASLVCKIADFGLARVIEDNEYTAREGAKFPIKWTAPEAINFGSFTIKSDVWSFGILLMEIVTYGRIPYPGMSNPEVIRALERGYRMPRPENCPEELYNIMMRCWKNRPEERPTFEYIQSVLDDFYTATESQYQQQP
High affinity nerve growth factor receptor (Homo sapiens), sequence (P04629 33-796 limits assumed): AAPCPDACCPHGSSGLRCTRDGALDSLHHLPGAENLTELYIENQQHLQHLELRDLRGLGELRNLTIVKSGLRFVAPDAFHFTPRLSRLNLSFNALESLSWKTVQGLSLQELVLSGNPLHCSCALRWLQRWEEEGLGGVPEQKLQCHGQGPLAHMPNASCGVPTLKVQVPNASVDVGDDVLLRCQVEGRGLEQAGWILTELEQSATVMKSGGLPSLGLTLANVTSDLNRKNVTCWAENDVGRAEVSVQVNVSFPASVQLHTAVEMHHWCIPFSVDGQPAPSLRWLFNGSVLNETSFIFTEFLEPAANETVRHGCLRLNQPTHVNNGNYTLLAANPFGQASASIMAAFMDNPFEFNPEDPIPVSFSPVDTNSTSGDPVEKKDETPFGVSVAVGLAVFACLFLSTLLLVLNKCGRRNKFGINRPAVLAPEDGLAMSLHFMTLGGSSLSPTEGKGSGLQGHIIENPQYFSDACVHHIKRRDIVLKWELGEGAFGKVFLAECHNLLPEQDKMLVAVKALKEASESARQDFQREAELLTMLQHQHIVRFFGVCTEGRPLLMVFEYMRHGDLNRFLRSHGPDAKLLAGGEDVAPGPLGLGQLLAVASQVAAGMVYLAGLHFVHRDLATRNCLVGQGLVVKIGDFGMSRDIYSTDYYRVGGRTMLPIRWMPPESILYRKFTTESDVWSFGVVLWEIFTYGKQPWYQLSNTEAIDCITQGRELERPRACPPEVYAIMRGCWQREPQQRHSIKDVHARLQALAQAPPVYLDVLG

Cn1cc(Cl)c2c(Oc3c(F)cc(Nc4cc(Cl)nc(N)n4)cc3F)ccnc21 [BAY-4900]
inactive: residual activity [1] 90% | residual activity [2] 100% | residual activity [3] 100% | residual activity [4] 80% | residual activity [5] 68% | residual activity [6] 100% | residual activity [7] 100% | residual activity [8] 96% | residual activity [9] 74% | residual activity [10] 100% | residual activity [11] 100% | residual activity [12] 83% | residual activity [13] 100% | residual activity [14] 100% | residual activity [15] 83% | residual activity [16] 100% | residual activity [17] 100% | residual activity [18] 90% | inhibition [19] -9.98% | residual activity [20] 93% | residual activity [21] 100% | residual activity [22] 91% | residual activity [23] 97% | residual activity [24] 99% | residual activity [25] 85%

Cc1c[nH]c2nccc(Oc3c(F)cc(Nc4cc(Cl)nc(N)n4)cc3F)c12 [BAY-549]
inactive: residual activity [1] 99% | residual activity [2] 97% | residual activity [3] 100% | residual activity [4] 100% | residual activity [5] 72% | residual activity [6] 100% | residual activity [7] 96% | residual activity [8] 91% | residual activity [9] 81% | residual activity [10] 99% | residual activity [11] 96% | residual activity [12] 84% | residual activity [13] 89% | residual activity [14] 100% | residual activity [15] 85% | residual activity [16] 100% | residual activity [17] 100% | residual activity [18] 80% | inhibition [19] -0.03% | residual activity [20] 81% | residual activity [21] 83% | residual activity [22] 75% | residual activity [23] 100% | residual activity [24] 63% | residual activity [25] 100%
